Molecules are shown by their SMILES.

Assay [1] deals with T1, HCV NS5B-21 (Hepatitis C virus genotype 1b, UniProt Q9WMX2).
T1 construct: HCV NS5B-21 (21-aminoacid C-terminally truncated version); purchased Replizyme
The experiment in a line: HCV NS5B-21 enzyme assay (SPA, 3H-ATP incorporation). Format: biochemical. The note with it: HCV NS5B-21 SPA enzyme assay, triphosphate tested. Here is the method:
It is this triphosphate which is believed to be the antivirally active species. The enzyme assay described here example may be used to confirm that compounds of the invention are antivirally active as the 5′-triphosphate metabolite.
The enzyme assay measures the inhibitory effect of triphosphate compounds in an HCV NS5B-21 (21-aminoacid C-terminally truncated version) SPA assay (scintillation proximity assay). The assay is performed by evaluating the amount of radiolabelled ATP incorporated by HCV NS5B-21 into newly synthesized RNA using an heterogeneous biotinylated RNA template.
To determine IC50 values the compounds are tested at various concentrations in a final volume of 100 μl of reaction mixture. The reaction is stopped by addition of 0.5M EDTA solution. The samples are transferred into flashplates precoated with streptavidin. The incorporated radioactivity is quantified using a scintillation counter (Wallac Microbeta Trilux).
The assay should include enzyme controls (about four, containing 1 μl DMSO instead of inhibitor) and background control containing all ingredients except template.
Compounds are serially diluted in DMSO on a separate dilution plate to 100× the final desired assay concentrations. […]
Incubate the plate over night and read the flash plate in the Microbeta Trilux using the protocol Flash plates H3. […]
IC50 is determined using Graphpad Prism. […]

For assay [2], the system named is HCV type 1b replicon in Huh-7 luc/neo (Huh-Luc) cells. Kind of assay: HCV replicon assay (Huh-Luc cells, luciferase read-out). The assay is classed as cell-based. The note with it: inhibition of HCV replication, three days incubation, luciferase activity. From the text: The in vitro antiviral activity against HCV of the compounds of formula I can be tested in a cellular HCV replicon system based on Lohmann et al. (1999) Science 285:110-113, with the further modifications described by Krieger et al. (2001) Journal of Virology 75: 4614-4624 (incorporated herein by reference), which is further exemplified in the examples section. This model, while not a complete infection model for HCV, is widely accepted as the most robust and efficient model of autonomous HCV RNA replication currently available. It will be appreciated that it is important to distinguish between compounds that specifically interfere with HCV functions from those that exert cytotoxic or cytostatic effects in the HCV replicon model, and as a consequence cause a decrease in HCV RNA or linked reporter enzyme concentration. Assays are known in the field for the evaluation of cellular cytotoxicity based for example on the activity of mitochondrial enzymes using fluorogenic redox dyes such as resazurin. Furthermore, cellular counter screens exist for the evaluation of non-selective inhibition of linked reporter gene activity, such as firefly luciferase. Appropriate cell types can be equipped by stable transfection with a luciferase reporter gene whose expression is dependent on a constitutively active gene promoter, and such cells can be used as a counter-screen to eliminate non-selective inhibitors.
The compounds of formula I may be examined for activity in the inhibition of HCV RNA replication in a cellular assay aimed at identifying compounds that inhibit a HCV functional cellular replicating cell line, also known as HCV replicons. A suitable cellular assay is based on a bicistronic expression construct, as described by Lohmann et al. (1999), Science vol. 285 pp. 110-113 with modifications described by Krieger et al. (2001), Journal of Virology 75: 4614-4624, in a multi-target screening strategy.
The assay utilizes the stably transfected cell line Huh-7 luc/neo (hereafter referred to as Huh-Luc). This cell line harbors an RNA encoding a bicistronic expression construct comprising the wild type NS3-NS5B regions of HCV type 1b translated from an Internal Ribosome Entry Site (IRES) from encephalomyocarditis virus (EMCV), preceded by a reporter portion (FfL-luciferase), and a selectable marker portion (neo^R, neomycine phosphotransferase). The construct is bordered by 5′ and 3′ NTRs (non-translated regions) from HCV type 1b. Continued culture of the replicon cells in the presence of G418 (neo^R) is dependent on the replication of the HCV RNA. The stably transfected replicon cells that express HCV RNA, which replicates autonomously and to high levels, encoding inter alia luciferase, are used for screening the antiviral compounds.
The replicon cells are plated in 384 well plates in the presence of the test and control compounds which are added in various concentrations. Following an incubation of three days, HCV replication is measured by assaying luciferase activity (using standard luciferase assay substrates and reagents and a Perkin Elmer ViewLux™ ultraHTS microplate imager). Replicon cells in the control cultures have high luciferase expression in the absence of any inhibitor. The inhibitory activity of a compound on luciferase activity is monitored on the Huh-Luc cells, enabling a dose-response curve for each test compound. EC50 values are then calculated, which value represents the amount of the compound required to decrease the level of detected luciferase activity by 50%, or more specifically, the ability of the genetically linked HCV replicon RNA to replicate.
On the technique in general: In antiviral work, replicon cells carry a viral genome segment that copies itself.

Regarding `C[C@@]1(N)[C@H](O)[C@@H](COP(=O)(O)OP(=O)(O)OP(=O)(O)O)O[C@H]1n1ccc(=O)[nH]c1=O` [Example 3, potassium ((2R,3S,4R,5R)-4-amino-5-(2,4-dioxo-3,4-dihydropyrimidin-1(2H)-yl)-3-hydroxy-4-methyltetrahydrofuran-2-yl)methyl triphosphate], inhibition in assay [1] was half-maximal at 13000 nM (IC50).
For the molecule `CCC(CC)OC(=O)[C@H](C)NP(=O)(OC[C@H]1O[C@@H](n2ccc(=O)[nH]c2=O)[C@](C)(N)[C@@H]1O)Oc1ccccc1` (single isomer, unassigned) [Example 28B], in assay [2], the EC50 (usually the concentration needed to bring the measured effect to its halfway point) was 480 nM.
`CCOC(=O)[C@H](C)NP(=O)(OC[C@H]1O[C@@H](n2ccc(=O)[nH]c2=O)[C@](C)(N)[C@@H]1O)Oc1ccccc1` (single isomer, unassigned) [Example 11B]: the concentration for a half-maximal effect (EC50) in assay [2] was 980 nM.
For the molecule `C[C@H](NP(=O)(OC[C@H]1O[C@@H](n2ccc(=O)[nH]c2=O)[C@](C)(N)[C@@H]1O)Oc1ccccc1)C(=O)OCC(C)(C)C` (single isomer, unassigned) [Example 13A], the EC50 in assay [2] is 2400 nM.
With `CCC(CC)COC(=O)[C@H](C)NP(=O)(OC[C@H]1O[C@@H](n2ccc(=O)[nH]c2=O)[C@](C)(N)[C@@H]1O)Oc1ccccc1` (single isomer, unassigned) [Example 20B], the EC50 in assay [2] came to 400 nM.
Still for that read-out and setting: to `C[C@H](NP(=O)(OC[C@H]1O[C@@H](n2ccc(=O)[nH]c2=O)[C@](C)(N)[C@@H]1O)Oc1ccccc1)C(=O)OCC1CCCC1` (single isomer, unassigned) [Example 27B] belongs 380 nM.
`CC[C@@H](C)OC(=O)[C@H](C)NP(=O)(OC[C@H]1O[C@@H](n2ccc(=O)[nH]c2=O)[C@](C)(N)[C@@H]1O)Oc1ccccc1` (single isomer, unassigned) [Example 22A]: the EC50 in assay [2] amounted to 21000 nM.
`C[C@H](NP(=O)(OC[C@H]1O[C@@H](n2ccc(=O)[nH]c2=O)[C@](C)(N)[C@@H]1O)Oc1ccccc1)C(=O)OC1CCCC1` (single isomer, unassigned) [Example 5A]: the concentration giving a half-maximal response (EC50) in assay [2] turned out to be 4700 nM.
`C[C@H](NP(=O)(OC[C@H]1O[C@@H](n2ccc(=O)[nH]c2=O)[C@](C)(N)[C@@H]1O)Oc1ccccc1)C(=O)OCCC(C)(C)C` (single isomer, unassigned) [Example 6A]: the EC50 in assay [2] was determined as 2300 nM.
The same measure, in the same setting: for `CC(C)OC(=O)[C@H](C)NP(=O)(OC[C@H]1O[C@@H](n2ccc(=O)[nH]c2=O)[C@](C)(N)[C@@H]1O)Oc1ccccc1` (single isomer, unassigned) [Example 9A] the value was 13000 nM; for `COC(=O)[C@H](C)NP(=O)(OC[C@H]1O[C@@H](n2ccc(=O)[nH]c2=O)[C@](C)(N)[C@@H]1O)Oc1ccccc1` (single isomer, unassigned) [Example 16B], 2100 nM; for `C[C@@]1(N)[C@H](O)[C@@H](COP(=O)(O)O)O[C@H]1n1ccc(=O)[nH]c1=O` [Example 4, ((2R,3S,4R,5R)-4-amino-5-(2,4-dioxo-3,4-dihydropyrimidin-1(2H)-yl)-3-hydroxy-4-methyltetrahydrofuran-2-yl)methyl dihydrogen Phosphate], greater than 50000 nM.
Still for that read-out and setting: to `C[C@H](NP(=O)(OC[C@H]1O[C@@H](n2ccc(=O)[nH]c2=O)[C@](C)(N)[C@@H]1O)Oc1ccccc1)C(=O)OCC1CC1` (single isomer, unassigned) [Example 26A] belongs 1700 nM; to `CC[C@@H](C)OC(=O)[C@H](C)NP(=O)(OC[C@H]1O[C@@H](n2ccc(=O)[nH]c2=O)[C@](C)(N)[C@@H]1O)Oc1ccccc1` (single isomer, unassigned) [Example 22B], 660 nM.
Same read-out and setting: to `CCCCCOC(=O)[C@H](C)NP(=O)(OC[C@H]1O[C@@H](n2ccc(=O)[nH]c2=O)[C@](C)(N)[C@@H]1O)Oc1ccccc1` (single isomer, unassigned) [Example 18B] belongs 320 nM; to `CCC(CC)OC(=O)[C@H](C)NP(=O)(OC[C@H]1O[C@@H](n2ccc(=O)[nH]c2=O)[C@](C)(N)[C@@H]1O)Oc1ccccc1` (single isomer, unassigned) [Example 28A], 34000 nM.
In the case of `C[C@H](NP(=O)(OC[C@H]1O[C@@H](n2ccc(=O)[nH]c2=O)[C@](C)(N)[C@@H]1O)Oc1ccccc1)C(=O)OC1CCC1` (single isomer, unassigned) [Example 8B], the EC50 in assay [2] is 800 nM.

The values above are taken from patent publication US20130143835A1, “HCV Polymerase Inhibitors” (MEDIVIR AB, priority 2011, published 2013).
